According to ChEMBL document CHEMBL1629422, “Synthesis and antimicrobial evaluation of some fused heterocyclic [1,2,4]triazolo[3,4-b][1,3,4]thiadiazole derivatives” (2010):
≈ marks a conversion by molar mass, not a printed value.

Legend:
Type in all cases: functional
[1] = tested on: Escherichia coli; experiment: Antimicrobial activity against Escherichia coli ATCC 25922 after18 to 20 hrs by broth dilution method
[2] = tested on: Pseudomonas aeruginosa; experiment: Antimicrobial activity against Pseudomonas aeruginosa ATCC 27853 after18 to 20 hrs by broth dilution method
[3] = tested on: Bacillus cereus; experiment: Antimicrobial activity against Bacillus cereus ATCC 13061 after18 to 20 hrs by broth dilution method
[4] = tested on: Staphylococcus epidermidis; experiment: Antimicrobial activity against Staphylococcus epidermidis ATCC 14990 after18 to 20 hrs by broth dilution method
[5] = tested on: Enterobacter cloacae; experiment: Antimicrobial activity against Enterobacter cloacae ATCC 49141 after18 to 20 hrs by broth dilution method
[6] = tested on: Acinetobacter baumannii; experiment: Antimicrobial activity against Acinetobacter baumannii ATCC 19606 after18 to 20 hrs by broth dilution method
[7] = tested on: Citrobacter freundii; experiment: Antimicrobial activity against Citrobacter freundii ATCC 8090 after18 to 20 hrs by broth dilution method
[8] = tested on: Enterococcus faecalis; experiment: Antimicrobial activity against Enterococcus faecalis ATCC 29212 after18 to 20 hrs by broth dilution method
[9] = tested on: Candida albicans; experiment: Antimicrobial activity against Candida albicans ATCC 90028 after 48 hrs by broth dilution method; conditions: ATCC 90028, 48 h
[10] = tested on: Staphylococcus aureus; experiment: Antimicrobial activity against Staphylococcus aureus ATCC 25923 after18 to 20 hrs by broth dilution method

Compound	MIC [1]	MIC [2]	MIC [3]	MIC [4]	MIC [5]	MIC [6]	MIC [7]	MIC [8]	MIC [9]	MIC [10]
O=S(=O)(c1ccccc1)c1ccc(-c2nnc3sc(-c4ccc(Cl)cc4)nn23)cc1	512 µg/mL (≈ 1130 µM)	512 µg/mL (≈ 1130 µM)	1020 µg/mL (≈ 2260 µM)	512 µg/mL (≈ 1130 µM)	512 µg/mL (≈ 1130 µM)	512 µg/mL (≈ 1130 µM)	512 µg/mL (≈ 1130 µM)	512 µg/mL (≈ 1130 µM)	512 µg/mL (≈ 1130 µM)	256 µg/mL (≈ 565 µM)
O=S(=O)(c1ccccc1)c1ccc(-c2nnc3sc(Nc4ccc(Br)cc4)nn23)cc1	256 µg/mL (≈ 500 µM)	512 µg/mL (≈ 999 µM)	1020 µg/mL (≈ 2000 µM)	512 µg/mL (≈ 999 µM)	512 µg/mL (≈ 999 µM)	512 µg/mL (≈ 999 µM)	1020 µg/mL (≈ 2000 µM)	1020 µg/mL (≈ 2000 µM)	1020 µg/mL (≈ 2000 µM)	1020 µg/mL (≈ 2000 µM)
COc1ccc(Nc2nn3c(-c4ccc(S(=O)(=O)c5ccccc5)cc4)nnc3s2)cc1	256 µg/mL (≈ 552 µM)	256 µg/mL (≈ 552 µM)	256 µg/mL (≈ 552 µM)	128 µg/mL (≈ 276 µM)	256 µg/mL (≈ 552 µM)	128 µg/mL (≈ 276 µM)	256 µg/mL (≈ 552 µM)	64 µg/mL (≈ 138 µM)	256 µg/mL (≈ 552 µM)	1020 µg/mL (≈ 2210 µM)
Cc1ccc(Nc2nn3c(-c4ccc(S(=O)(=O)c5ccccc5)cc4)nnc3s2)cc1	256 µg/mL (≈ 572 µM)	512 µg/mL (≈ 1140 µM)	1020 µg/mL (≈ 2290 µM)	512 µg/mL (≈ 1140 µM)	512 µg/mL (≈ 1140 µM)	128 µg/mL (≈ 286 µM)	1020 µg/mL (≈ 2290 µM)	512 µg/mL (≈ 1140 µM)	256 µg/mL (≈ 572 µM)	1020 µg/mL (≈ 2290 µM)
O=S(=O)(c1ccc(Br)cc1)c1ccc(-c2nnc3sc(Nc4ccc(Br)cc4)nn23)cc1	128 µg/mL (≈ 216 µM)	512 µg/mL (≈ 866 µM)	1020 µg/mL (≈ 1730 µM)	512 µg/mL (≈ 866 µM)	512 µg/mL (≈ 866 µM)	512 µg/mL (≈ 866 µM)	1020 µg/mL (≈ 1730 µM)	128 µg/mL (≈ 216 µM)	128 µg/mL (≈ 216 µM)	512 µg/mL (≈ 866 µM)
COc1ccc(Nc2nn3c(-c4ccc(S(=O)(=O)c5ccc(Br)cc5)cc4)nnc3s2)cc1	256 µg/mL (≈ 472 µM)	256 µg/mL (≈ 472 µM)	1020 µg/mL (≈ 1890 µM)	128 µg/mL (≈ 236 µM)	256 µg/mL (≈ 472 µM)	128 µg/mL (≈ 236 µM)	256 µg/mL (≈ 472 µM)	128 µg/mL (≈ 236 µM)	128 µg/mL (≈ 236 µM)	512 µg/mL (≈ 944 µM)
Nc1ccc(-c2nn3c(-c4ccc(S(=O)(=O)c5ccccc5)cc4)nnc3s2)cc1	256 µg/mL (≈ 591 µM)	256 µg/mL (≈ 591 µM)	256 µg/mL (≈ 591 µM)	64 µg/mL (≈ 148 µM)	256 µg/mL (≈ 591 µM)	128 µg/mL (≈ 295 µM)	256 µg/mL (≈ 591 µM)	128 µg/mL (≈ 295 µM)	256 µg/mL (≈ 591 µM)	512 µg/mL (≈ 1180 µM)
Cc1ccc(Nc2nn3c(-c4ccc(S(=O)(=O)c5ccc(Br)cc5)cc4)nnc3s2)cc1	256 µg/mL (≈ 486 µM)	512 µg/mL (≈ 973 µM)	1020 µg/mL (≈ 1950 µM)	1020 µg/mL (≈ 1950 µM)	512 µg/mL (≈ 973 µM)	1020 µg/mL (≈ 1950 µM)	1020 µg/mL (≈ 1950 µM)	512 µg/mL (≈ 973 µM)	128 µg/mL (≈ 243 µM)	512 µg/mL (≈ 973 µM)
O=S(=O)(c1ccccc1)c1ccc(-c2nnc3sc(-c4ccc(Br)cc4)nn23)cc1	512 µg/mL (≈ 1030 µM)	512 µg/mL (≈ 1030 µM)	1020 µg/mL (≈ 2060 µM)	1020 µg/mL (≈ 2060 µM)	512 µg/mL (≈ 1030 µM)	1020 µg/mL (≈ 2060 µM)	1020 µg/mL (≈ 2060 µM)	1020 µg/mL (≈ 2060 µM)	1020 µg/mL (≈ 2060 µM)	512 µg/mL (≈ 1030 µM)
COc1ccc(-c2nn3c(-c4ccc(S(=O)(=O)c5ccccc5)cc4)nnc3s2)cc1	512 µg/mL (≈ 1140 µM)	256 µg/mL (≈ 571 µM)	512 µg/mL (≈ 1140 µM)	512 µg/mL (≈ 1140 µM)	512 µg/mL (≈ 1140 µM)	512 µg/mL (≈ 1140 µM)	512 µg/mL (≈ 1140 µM)	512 µg/mL (≈ 1140 µM)	512 µg/mL (≈ 1140 µM)	256 µg/mL (≈ 571 µM)
NCc1ccc(-c2nn3c(-c4ccc(S(=O)(=O)c5ccccc5)cc4)nnc3s2)cc1	256 µg/mL (≈ 572 µM)	256 µg/mL (≈ 572 µM)	1020 µg/mL (≈ 2290 µM)	512 µg/mL (≈ 1140 µM)	512 µg/mL (≈ 1140 µM)	1020 µg/mL (≈ 2290 µM)	1020 µg/mL (≈ 2290 µM)	512 µg/mL (≈ 1140 µM)	512 µg/mL (≈ 1140 µM)	512 µg/mL (≈ 1140 µM)
O=S(=O)(c1ccccc1)c1ccc(-c2nnc3sc(-c4cc(O)c(O)c(O)c4)nn23)cc1	256 µg/mL (≈ 549 µM)	128 µg/mL (≈ 274 µM)	256 µg/mL (≈ 549 µM)	512 µg/mL (≈ 1100 µM)	512 µg/mL (≈ 1100 µM)	1020 µg/mL (≈ 2200 µM)	1020 µg/mL (≈ 2200 µM)	32 µg/mL (≈ 68.6 µM)	512 µg/mL (≈ 1100 µM)	512 µg/mL (≈ 1100 µM)
